Measurements taken from US20210309669A1, “Heterocyclic Spiro Compounds As MAGL Inhibitors” (Pfizer Inc., priority 2018, published 2021).

Experiments:
[1] = Dog intravenous pharmacokinetic study; format: in vivo, Male beagle dogs; settings: male, beagle, IV dose of 1 mg/kg, plasma, read-out: Dog t1/2 (converted)
Description: The pharmacokinetic studies in dog were conducted at Pfizer Global Research and Development (Groton, Conn.). All in vivo studies were conducted in accordance with regulations and established guidelines using protocols reviewed and approved by the Pfizer Worldwide Research and Development (WRD, or other) Institutional Animal Care and Use Committee.
Male beagle dogs were fasted overnight with water provided ad libitium. The dogs were fed at approximately 2-4 h post-dose. The dogs (n=2) were administered an IV bolus via the cephalic vein. Compounds of Examples 1-3 were tested along with the following four comparative compounds.
All test compounds were administered an IV dose of 1 mg/kg of the specified compound which was delivered in a dose volume of 0.5 mL/kg. The dose solution was formulated in 10% PEG400/90% of 23% (w/v) HPBCD in de-ionized water for the following test compounds: Example 1, Example 2, and Example 3; in 20% SBECD (sulfobutyl either β-cyclodextrin) for Comparative-Compound 3; in 23% (w/v) HPBCD (hydroxypropyl β-cyclodextrin) in water for Comparative Compound 2; in 12.5.% SBECD in water with 0.25% 0.1N HCl to pH 5 for Comparative Compound 1. Serial blood samples were collected from each dog via the jugular vein prior to dose administration and at the following time points post-dose: 0.083, 0.25, 0.5, 1, 2, 4, 7, and 24 h for all compounds with an additional time point of 0.016 h collected for Comparative Compound 1 only. Blood samples were collected into tubes containing EDTA and placed on wet ice. Following centrifugation to afford plasma, the samples were transferred to polypropylene tubes and stored frozen at −20° C. to −80° C. until analysis.
All plasma samples were quantified via liquid chromatography/tandem mass spectrometry (LC/MS-MS) using multiple reaction monitoring with non-validated methods. The plasma standard curves were generated with species specific plasma. Pharmacokinetic parameters were determined by non-compartmental analysis using Watson LIMS software version 7.4 (Thermo Fisher Scientific, Waltham, Mass.). The area under the concentration versus time curve (AUC) was calculated from the first time point to the last time point with measurable drug concentration using a linear trapezoidal rule. The area under the concentration versus time curve from the first time point to time infinity (AUC(0-inf)) was calculated by extrapolation from the time point where the last measurable concentration occurred to time infinity by dividing the observed concentration at the last time point by the elimination rate constant determined using linear regression of plasma concentration versus time data. The plasma clearance (CLp) was calculated by the equation CLp=dose/AUC(0-inf). The elimination half-life (t½) was calculated using the following equation t1/2=ln 2/k; k is equal to the rate constant of elimination calculated by the least squares of the log transformed data.

[2] = target: T1, human recombinant Monoacylglycerol Lipase (Homo sapiens, UniProt Q99685); assay: MAGL inactivation (enzyme progress curves, kinact/KI); format: biochemical; settings: geometric mean
T1 sequence (Q99685 1-303): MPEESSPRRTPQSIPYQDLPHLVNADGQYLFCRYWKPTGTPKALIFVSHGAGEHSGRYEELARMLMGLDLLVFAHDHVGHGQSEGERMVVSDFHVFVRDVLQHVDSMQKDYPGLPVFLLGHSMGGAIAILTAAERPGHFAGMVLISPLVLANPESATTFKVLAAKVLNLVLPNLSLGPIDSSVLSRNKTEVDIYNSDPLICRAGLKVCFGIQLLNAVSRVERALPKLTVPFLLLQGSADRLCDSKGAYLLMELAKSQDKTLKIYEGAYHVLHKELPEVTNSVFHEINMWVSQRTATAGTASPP
Description: Assessment of MAGL inhibition utilizes human recombinant Monoacylglycerol Lipase and the fluorogenic substrate 7-hydroxycoumarinyl arachidonate (7-HCA, Biomol ST-502). 400 nL of a test compound at decreasing concentration (ranging from 150 μM down to 1.5 nM) was spotted into a 384-well back plate (PerkinElmer, 6007279) using a Labcyte Echo, followed by addition of 10 μL of MAGL enzyme in assay buffer (50 mM HEPES, pH 7.4, 100 mM NaCl, 5 mM MgCl2, 0.1% Triton X-100 and 25% glycerin). An equal volume of 7-HCA in assay buffer with 10% DMSO was added either immediately (T=0 min) or after a 30 minute incubation (T=30 min) to initiate the reaction. The final concentration of MAGL enzyme was […] and 7-HCA substrate was 5 μM. After these dilutions, the final concentration of the test compound ranged from 3 μM to 0.03 nM. The reaction was allowed to progress for 60 minutes, after which the plate was read at an Ex/Em of 340/465. Percent inhibitions were calculated based on control wells containing no compound (0% inhibition) and a control compound (e.g., a MAGL inhibitor whose activity is known or was previously reported in the literature, such as one with about 100% inhibition). IC50 values were generated based on a four parameter fit model using ABASE software from IDBS. See e.g., Wang, Y. et al., “A Fluorescence-Based Assay for Monoacylglycerol Lipase Compatible with Inhibitor Screening,” Assay and Drug Development Technologies, 2008, Vol. 6 (3) pp 387-393 (reporting an assay for measuring MAGL activity).
To measure MAGL inactivation, the same protocol for the (T=0 min) MAGL inhibition IC50 assay was performed with data collected every minute to acquire enzyme progress curves at decreasing concentrations of compound.

[3] = In vitro intrinsic clearance in human hepatocytes; format: in vitro ADME; settings: 1 μM substrate, human hepatocytes 0.5 million viable cells per mL, 37° C.
Description: Test Compounds (Example 1-3 and Comparative-Compounds 1-4) were prepared as solutions in DMSO at 3 mM which were then diluted in media containing WEM. The final concentration of DMSO in the incubation was 0.03% (v/v). The in vitro half-life (t½) of each compound was determined in incubations containing substrate (1 μM), human hepatocytes (0.5 million viable cells per mL final concentration) in media containing WEM, 50 mM HEPES buffer (pH 7.4), and 26 mM sodium bicarbonate at 37° C. (all final concentrations) in a 96-well plate. The reaction mixture was pre-warmed at 37° C. for 30 min prior to the initiation of the incubation. The incubation was quenched with acetonitrile containing internal standards at the following time points: 0, 5, 15, 30, 60, 120, and 240 min (individual incubation plates per time point). The samples were vortexed followed by centrifugation. An aliquot of supernatant was transferred to a clean 96-well plate and analyzed by LC/MS-MS using multiple reaction monitoring. For control experiments, hepatocytes were omitted from the incubations.
The hepatocyte t½ (min) was obtained from a log-linear plot of the substrate depletion versus incubation time and was scaled to hepatic intrinsic clearance (CLint,app (μL/min/million cells) using the following equation: […]

Row | Structure (SMILES) | half-life [1] | MAGL kinact/KI [2] | HHEPs CLint, app [3]
1 | O=C(OC(C(F)(F)F)C(F)(F)F)N1CCC2(CC1)C[C@@H](NS(=O)(=O)CC1CC1)CO2 [Example 1, 1,1,1,3,3,3-Hexafluoropropan-2-yl (3R)-3-{[(cyclopropylmethyl)sulfonyl]amino}-1-oxa-8-azaspiro[4.5]decane-8-carboxylate] | 1010 min | 2990 1/s per M | <4.26 μL/min/million
2 | O=C(OC(C(F)(F)F)C(F)(F)F)N1CCC2(CC1)C[C@@H](NS(=O)(=O)C1CC1)CO2 [Example 2, 1,1,1,3,3,3-Hexafluoropropan-2-yl (3R)-3-[(cyclopropylsulfonyl)amino]-1-oxa-8-azaspiro[4.5]decane-8-carboxylate] | 2440 min | 2050 1/s per M | 3.46 μL/min/million
3 | O=C(OC(C(F)(F)F)C(F)(F)F)N1CCC2(CCC(NS(=O)(=O)CC3CC3)CO2)CC1 (stereo not drawn) [Example 3, 1,1,1,3,3,3-Hexafluoropropan-2-yl 3-{[(cyclopropylmethyl)sulfonyl]amino}-1-oxa-9-azaspiro[5.5]undecane-9-carboxylate] | 1580 min | 3160 1/s per M | <3.57 μL/min/million
